The conditions of data set [1]: Crystal; DTA.
Data set [2] in a line: Molar enthalpy of transition or fusion. Particulars: Crystal; DSC.

Numbers after ± are expanded uncertainties.

As to `CN[C@@]1(c2ccccc2Cl)CCCCC1=O` [(R)-ketamine], the Normal melting temperature in data set [1] was found to be 121.0 ± 0.5 °C. Further, the “Molar enthalpy of transition or fusion” value in data set [2] was determined as 6.86 ± 0.198 kcal/mol.
For `CN[C@]1(c2ccccc2Cl)CCCCC1=O` [(S)-ketamine], in data set [1], the Normal melting temperature amounted to 121.0 ± 0.5 °C. The “Molar enthalpy of transition or fusion” value in data set [2] is 6.86 ± 0.198 kcal/mol.

Values taken from the NIST ThermoML archive (doi:10.1021/je8002207).
